# Test results published in article PMC8536124 (International Journal of Molecular Sciences, 2021).
# How the values were obtained:
# Assay in all cases: NCI-60 screening (SRB)
# Assay type in all cases: cell-based, human
# RPMI-8226 = conditions: five-dose
# UO-31 = conditions: five-dose
# NCI/ADR-RES = conditions: five-dose
# MCF7 = conditions: five-dose
# A498 = conditions: A498, five-dose
# T-47D = conditions: five-dose
# ACHN = conditions: five-dose
# COLO 205 = conditions: five-dose
# 786-0 = conditions: five-dose
# OVCAR-3 = conditions: five-dose
# SK-OV-3 = conditions: five-dose
# HCT-15 = conditions: five-dose
# MDA-MB-435 = conditions: five-dose
# EKVX = conditions: five-dose
# SK-MEL-5 = conditions: SK-MEL-5, five-dose
# OVCAR-8 = conditions: five-dose
# SW-620 = conditions: five-dose
# KM12 = conditions: five-dose
# MOLT-4 = conditions: five-dose
# HS 578T = conditions: five-dose
# NCI-H522 = conditions: five-dose
# PC-3 = conditions: five-dose
# MALME-3M = conditions: MALME-3M, five-dose
# SK-MEL-28 = conditions: five-dose
# BT-549 = conditions: five-dose
# DU-145 = conditions: five-dose
# LOX IMVI = conditions: LOX IMVI, five-dose
# HCT-116 = conditions: five-dose
# SNB-19 = conditions: five-dose
# U251 = conditions: U251, five-dose
# [1] = Homo sapiens, read-out: LC50 (the source's name)
compound,measurement,setting,value
"CCN1CCN(C(=O)[C@]23CC[C@@H](C)[C@H](C)[C@H]2C2=CC[C@@H]4[C@@]5(C)C/C(=C/c6cccnc6)C(=O)C(C)(C)[C@@H]5CC[C@@]4(C)[C@]2(C)CC3)CC1 [Compound 9, N-(2-{3-Pyridinylidene}-3-oxoursan-12-en-28-oyl)-ethylpiperazine]",GI50,RPMI-8226; Homo sapiens,2.45 µM
same,CC50,RPMI-8226; [1],> 100 µM
same,TGI,RPMI-8226,7.38 µM
same,GI50,UO-31; Homo sapiens,1.36 µM
same,CC50,UO-31; [1],5.19 µM
same,TGI,UO-31,2.65 µM
same,GI50,NCI/ADR-RES; Homo sapiens,1.59 µM
same,CC50,NCI/ADR-RES; [1],6.91 µM
same,TGI,NCI/ADR-RES,3.31 µM
same,GI50,MCF7; Homo sapiens,1.64 µM
same,CC50,MCF7; [1],7.14 µM
same,TGI,MCF7,3.42 µM
same,TGI,A498,4.05 µM
same,GI50,A498; Homo sapiens,1.9 µM
same,CC50,A498; [1],8.65 µM
same,GI50,"T-47D; Homo sapiens, T47D",2.79 µM
same,LC50 (concentration killing 50% of cells),"T-47D; Homo sapiens, T47D",> 100 µM
same,TGI,T-47D,13.4 µM
same,GI50,ACHN; Homo sapiens,2.46 µM
same,LC50,ACHN; Homo sapiens,22.6 µM
same,TGI,ACHN,6.45 µM
same,GI50,COLO 205; Homo sapiens,2.19 µM
same,CC50,COLO 205; [1],> 100 µM
same,TGI,COLO 205,5.12 µM
same,GI50,786-0; Homo sapiens,1.98 µM
same,TGI,786-0,4.37 µM
same,GI50,OVCAR-3; Homo sapiens,1.65 µM
same,CC50,OVCAR-3; [1],6.17 µM
same,TGI,OVCAR-3,3.19 µM
same,GI50,SK-OV-3; Homo sapiens,2.7 µM
same,CC50,SK-OV-3; [1],90.1 µM
same,TGI,SK-OV-3,9.02 µM
same,GI50,HCT-15; Homo sapiens,1.66 µM
same,CC50,HCT-15; [1],6.41 µM
same,TGI,HCT-15,3.26 µM
same,GI50,MDA-MB-435; Homo sapiens,1.7 µM
same,CC50,MDA-MB-435; [1],7.18 µM
same,TGI,MDA-MB-435,3.49 µM
same,GI50,EKVX; Homo sapiens,2.17 µM
same,LC50,EKVX; Homo sapiens,61.7 µM
same,TGI,EKVX,7.32 µM
same,GI50,SK-MEL-5; Homo sapiens,1.75 µM
same,CC50,SK-MEL-5; [1],5.63 µM
same,TGI,SK-MEL-5,3.14 µM
same,GI50,OVCAR-8; Homo sapiens,2.32 µM
same,CC50,OVCAR-8; [1],> 100 µM
same,TGI,OVCAR-8,6.29 µM
same,GI50,SW-620; Homo sapiens,1.9 µM
same,CC50,SW-620; [1],9.05 µM
same,TGI,SW-620,4.14 µM
same,GI50,KM12; Homo sapiens,1.75 µM
same,CC50,KM12; [1],7.23 µM
same,TGI,KM12,3.56 µM
same,GI50,MOLT-4; Homo sapiens,2.63 µM
same,CC50,MOLT-4; [1],> 100 µM
same,TGI,MOLT-4,7.44 µM
same,GI50,HS 578T; Homo sapiens,1.91 µM
same,CC50,HS 578T; [1],> 100 µM
same,TGI,HS 578T,4.77 µM
same,GI50,NCI-H522; Homo sapiens,1.66 µM
same,TGI,NCI-H522,3.86 µM
same,GI50,PC-3; Homo sapiens,1.49 µM
same,CC50,PC-3; [1],9.92 µM
same,TGI,PC-3,3.85 µM
same,GI50,MALME-3M; Homo sapiens,1.4 µM
same,CC50,MALME-3M; [1],5.39 µM
same,TGI,MALME-3M,2.75 µM
same,GI50,SK-MEL-28; Homo sapiens,1.74 µM
same,CC50,SK-MEL-28; [1],5.69 µM
same,TGI,SK-MEL-28,3.15 µM
same,GI50,BT-549; Homo sapiens,1.69 µM
same,TGI,BT-549,3.59 µM
same,GI50,DU-145; Homo sapiens,2.08 µM
same,CC50,DU-145; [1],8.53 µM
same,TGI,DU-145,4.21 µM
same,GI50,LOX IMVI; Homo sapiens,1.58 µM
same,CC50,LOX IMVI; [1],5.91 µM
same,TGI,LOX IMVI,3.06 µM
same,GI50,HCT-116; Homo sapiens,1.69 µM
same,CC50,HCT-116; [1],7.43 µM
same,TGI,HCT-116,3.55 µM
same,GI50,SNB-19; Homo sapiens,1.79 µM
same,CC50,SNB-19; [1],7.82 µM
same,TGI,SNB-19,3.74 µM
same,GI50,"U251; Homo sapiens, U-251",1.82 µM
same,TGI,U251,3.67 µM
